# Results reported in ChEMBL document CHEMBL4251696, “Discovery of a Stress-Activated Protein Kinase Inhibitor for Lymphatic Filariasis” (ACS Med Chem Lett, 2018).
# Calls of active or inactive are those of the source. No cut-off for these calls is given here.
# Experiments:
# Brugia malayi [1] = assay: Inhibition of recombinant Brugia malayi MPK1a at 1 uM using FAM-p38tide as substrate by IMAP assay relative to control
# [2] = Inhibition of recombinant Brugia malayi MPK1a using FAM-p38tide as substrate by IMAP assay
# [3] = Inhibition of sodium arsenate activated N-terminal GST-tagged Brugia malayi MPK1 expressed in HEK293F cells using FAM-p38tide as substrate by IMAP assay
# [4] = target: Mitogen-activated protein kinase 14 (Homo sapiens, UniProt Q16539); assay: Inhibition of human p38alpha using FAM-p38tide as substrate by IMAP assay
# [5] = AUC in mouse at 30 mg/kg, po; format: ADME, organism-based; conditions: in vivo
# CYP2C19 = CYP2C19 (Homo sapiens, UniProt P33261); assay: Inhibition of CYP2C19 (unknown origin) at 5 uM relative to control; format: ADME
# Mus musculus = assay: Time at which plasma concentration stays above in vitro IC50 for Brugia malayi MPK1a in mouse at 30 mg/kg, po; format: ADME, organism-based; conditions: in vivo
# [6] = Stability in mouse microsomes assessed as parent compound remaining after 1 hr; format: ADME, Microsome; conditions: read-out: Stability
# Brugia malayi [7] = assay: Antifilarial activity against adult Brugia malayi assessed as increase in copper-induced reduction in parasite motility at 0.1 to 1 uM measured daily for 5 days; format: functional, organism-based
# CYP3A4 = CYP3A4 (Homo sapiens, UniProt P08684); assay: Inhibition of CYP3A4 (unknown origin) at 5 uM relative to control; format: ADME
# CYP2D6 = CYP2D6 (Homo sapiens, UniProt P10635); assay: Inhibition of CYP2D6 (unknown origin) at 5 uM relative to control; format: ADME
# [8] = Ratio of unbound Cmax in mouse at 30 mg/kg, po to IC50 for Brugia malayi MPK1a; format: ADME, organism-based; conditions: in vivo
# [9] = Stability in human microsomes assessed as parent compound remaining after 1 hr; format: ADME, Microsome; conditions: read-out: Stability
# CYP1A2 = target: T1, CYP1A2 (Homo sapiens, UniProt P05177); assay: Inhibition of CYP1A2 (unknown origin) at 5 uM relative to control; format: ADME
# T1 sequence (P05177 whole entry): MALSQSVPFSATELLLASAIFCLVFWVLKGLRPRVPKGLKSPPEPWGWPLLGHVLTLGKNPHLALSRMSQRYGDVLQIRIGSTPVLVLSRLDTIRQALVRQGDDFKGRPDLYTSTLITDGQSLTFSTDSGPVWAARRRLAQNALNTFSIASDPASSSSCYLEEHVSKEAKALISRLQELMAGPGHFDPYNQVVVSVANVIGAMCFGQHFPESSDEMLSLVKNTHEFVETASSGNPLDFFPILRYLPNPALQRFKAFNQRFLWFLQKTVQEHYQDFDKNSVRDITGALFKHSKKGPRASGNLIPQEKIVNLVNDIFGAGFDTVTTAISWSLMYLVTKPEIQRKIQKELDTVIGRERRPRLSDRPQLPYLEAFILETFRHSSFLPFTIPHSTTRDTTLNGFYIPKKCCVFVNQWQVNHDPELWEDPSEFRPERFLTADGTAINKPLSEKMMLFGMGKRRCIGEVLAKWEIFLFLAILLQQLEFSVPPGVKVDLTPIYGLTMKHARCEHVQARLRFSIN
# [10] = Protein binding in mouse plasma; format: ADME, cell-free; conditions: read-out: PPB (converted)
# Brugia malayi [11] = assay: Antifilarial activity against Brugia malayi microfilaria assessed as increase in copper-induced reduction in parasite motility at 0.1 to 1 uM measured daily for 5 days; format: functional, organism-based
# [12] = Tmax in mouse at 30 mg/kg, po; format: ADME, organism-based; conditions: in vivo
# [13] = Cmax in mouse at 30 mg/kg, po; format: ADME, organism-based; design: dose 30 mg/kg, route oral; conditions: in vivo
# [14] = target: Mitogen-activated protein kinase 10 (Homo sapiens) (UniProt P53779); assay: Inhibition of human JNK3 FAM-EGFR-derived peptide as substrate by IMAP assay
# CYP2C9 = CYP2C9 (Homo sapiens, UniProt P11712); assay: Inhibition of CYP2C9 (unknown origin) at 5 uM relative to control; format: ADME
# Sequence of CYP2C9 (P11712 whole entry): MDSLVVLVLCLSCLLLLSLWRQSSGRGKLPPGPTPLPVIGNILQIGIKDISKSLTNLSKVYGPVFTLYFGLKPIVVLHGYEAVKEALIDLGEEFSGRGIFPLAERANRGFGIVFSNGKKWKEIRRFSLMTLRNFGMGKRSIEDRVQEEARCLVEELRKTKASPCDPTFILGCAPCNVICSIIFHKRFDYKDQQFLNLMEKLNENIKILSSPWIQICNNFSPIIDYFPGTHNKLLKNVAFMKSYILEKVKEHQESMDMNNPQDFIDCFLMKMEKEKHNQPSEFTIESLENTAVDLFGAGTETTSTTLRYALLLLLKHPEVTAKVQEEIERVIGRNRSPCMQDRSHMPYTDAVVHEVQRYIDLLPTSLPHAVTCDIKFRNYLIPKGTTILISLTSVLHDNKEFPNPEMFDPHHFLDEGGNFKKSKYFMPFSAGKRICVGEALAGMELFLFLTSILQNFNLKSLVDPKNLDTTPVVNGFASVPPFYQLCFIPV
# Sequence of Mitogen-activated protein kinase 10 (Homo sapiens) (P53779 whole entry, looked up): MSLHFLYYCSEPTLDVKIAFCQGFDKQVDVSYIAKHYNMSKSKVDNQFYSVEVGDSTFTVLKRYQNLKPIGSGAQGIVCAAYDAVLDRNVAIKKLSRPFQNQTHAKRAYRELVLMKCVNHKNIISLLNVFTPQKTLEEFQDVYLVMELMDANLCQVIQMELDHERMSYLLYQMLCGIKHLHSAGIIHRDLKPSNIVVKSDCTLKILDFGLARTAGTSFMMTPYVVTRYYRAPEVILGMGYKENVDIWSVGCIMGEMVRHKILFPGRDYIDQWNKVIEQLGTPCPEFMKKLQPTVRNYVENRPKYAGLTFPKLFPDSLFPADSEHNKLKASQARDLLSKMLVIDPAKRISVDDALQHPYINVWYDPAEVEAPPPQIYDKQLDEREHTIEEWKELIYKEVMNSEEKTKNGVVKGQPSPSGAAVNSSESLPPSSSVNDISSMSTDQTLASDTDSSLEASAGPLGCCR
# Sequence of Mitogen-activated protein kinase 14 (Q16539 whole entry): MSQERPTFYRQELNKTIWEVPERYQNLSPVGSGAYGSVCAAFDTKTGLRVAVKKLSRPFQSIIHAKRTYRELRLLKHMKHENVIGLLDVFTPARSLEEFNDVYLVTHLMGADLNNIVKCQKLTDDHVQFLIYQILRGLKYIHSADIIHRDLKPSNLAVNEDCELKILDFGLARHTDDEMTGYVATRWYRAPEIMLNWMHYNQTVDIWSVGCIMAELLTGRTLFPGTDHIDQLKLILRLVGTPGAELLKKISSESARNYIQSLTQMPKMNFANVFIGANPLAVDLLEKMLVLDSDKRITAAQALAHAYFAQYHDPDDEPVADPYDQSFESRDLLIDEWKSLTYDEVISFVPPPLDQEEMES
# Sequence of CYP3A4 (P08684 whole entry): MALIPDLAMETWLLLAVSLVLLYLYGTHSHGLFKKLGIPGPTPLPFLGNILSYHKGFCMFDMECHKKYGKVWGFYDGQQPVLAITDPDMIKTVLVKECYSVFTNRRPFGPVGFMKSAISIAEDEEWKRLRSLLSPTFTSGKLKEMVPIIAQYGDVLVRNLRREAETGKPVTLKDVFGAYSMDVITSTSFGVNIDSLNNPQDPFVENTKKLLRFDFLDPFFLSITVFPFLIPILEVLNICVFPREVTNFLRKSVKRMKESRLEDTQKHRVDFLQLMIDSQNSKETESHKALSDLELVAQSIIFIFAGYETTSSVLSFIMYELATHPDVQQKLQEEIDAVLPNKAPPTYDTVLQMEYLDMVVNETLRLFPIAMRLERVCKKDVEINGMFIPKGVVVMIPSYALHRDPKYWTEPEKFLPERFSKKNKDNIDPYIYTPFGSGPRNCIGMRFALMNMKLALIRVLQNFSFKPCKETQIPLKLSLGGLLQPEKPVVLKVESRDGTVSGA
# Sequence of CYP2C19 (P33261 whole entry): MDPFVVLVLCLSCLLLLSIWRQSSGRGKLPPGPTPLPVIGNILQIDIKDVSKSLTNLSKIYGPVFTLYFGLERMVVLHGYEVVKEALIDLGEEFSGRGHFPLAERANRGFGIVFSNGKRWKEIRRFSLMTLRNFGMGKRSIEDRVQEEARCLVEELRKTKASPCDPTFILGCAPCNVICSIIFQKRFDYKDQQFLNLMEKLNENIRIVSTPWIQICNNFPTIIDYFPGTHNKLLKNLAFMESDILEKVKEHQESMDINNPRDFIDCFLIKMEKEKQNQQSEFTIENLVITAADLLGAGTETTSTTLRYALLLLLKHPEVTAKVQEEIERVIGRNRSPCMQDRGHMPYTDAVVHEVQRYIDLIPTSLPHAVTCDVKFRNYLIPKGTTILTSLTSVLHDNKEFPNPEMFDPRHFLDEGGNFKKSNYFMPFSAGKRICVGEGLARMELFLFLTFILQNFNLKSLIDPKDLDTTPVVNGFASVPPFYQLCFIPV
# Sequence of CYP2D6 (P10635 whole entry): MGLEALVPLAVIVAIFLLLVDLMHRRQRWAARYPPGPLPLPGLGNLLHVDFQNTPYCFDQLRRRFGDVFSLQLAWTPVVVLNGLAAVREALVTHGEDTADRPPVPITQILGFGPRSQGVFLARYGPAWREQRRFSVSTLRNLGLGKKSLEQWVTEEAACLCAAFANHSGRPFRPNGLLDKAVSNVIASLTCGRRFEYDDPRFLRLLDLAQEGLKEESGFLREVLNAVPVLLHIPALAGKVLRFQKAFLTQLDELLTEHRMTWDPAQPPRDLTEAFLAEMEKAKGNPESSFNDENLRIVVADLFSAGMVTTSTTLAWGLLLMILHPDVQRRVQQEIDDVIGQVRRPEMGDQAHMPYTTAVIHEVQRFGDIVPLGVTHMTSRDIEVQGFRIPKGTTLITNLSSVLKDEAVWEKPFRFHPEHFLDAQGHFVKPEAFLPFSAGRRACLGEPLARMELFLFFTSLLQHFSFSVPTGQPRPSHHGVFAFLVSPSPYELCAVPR
SMILES,inhibition (Brugia malayi [1]) [%],IC50 [2] [nM],other results
CC(=O)N1CC[C@@H](Nc2nccc(-c3c(-c4ccccn4)noc3C)n2)C1,7,–,–
CC(=O)N[C@H]1CC[C@@H](Nc2nccc(-c3c(-c4ccccc4)noc3C)n2)CC1,91,94,–
CC(=O)N1CC[C@@H](Nc2nccc(-c3c(-c4ccccc4)noc3C)n2)C1,87,130,–
Cc1onc(-c2ccccc2)c1-c1ccnc(NC2CCCN(C(=O)OC(C)(C)C)C2)n1 (racemic),45,–,–
CC(=O)N1CC[C@@H](Nc2nccc(-c3c(-c4ccccc4)noc3C(F)(F)F)n2)C1,28,–,–
Cc1onc(-c2ccccc2)c1-c1ccnc(N[C@@H]2CCN(C(=O)c3ccccc3)C2)n1,12,–,–
Cc1onc(-c2ccccc2)c1-c1ccnc(N[C@@H]2CCNC2)n1,64,700,–
Cc1onc(-c2ccccc2)c1-c1ccnc(N[C@H]2CC[C@@H](NC(=O)OC(C)(C)C)CC2)n1,90,94,–
OCCC#Cc1nc(-c2ccc(F)cc2)c(-c2ccncc2)n1CCCc1ccccc1 [RWJ-67657],–,–,IC50 [3]: 120 nM
Cc1onc(-c2ccccc2)c1-c1ccnc(N[C@H]2CC[C@H](NC(=O)OC(C)(C)C)CC2)n1,83,200,–
Cc1onc(-c2ccccc2)c1-c1ccnc(N[C@H]2CCN(C(=O)OC(C)(C)C)C2)n1,0,360,–
Cc1onc(-c2ccccc2)c1-c1ccnc(N[C@@H]2CCN(S(=O)(=O)c3ccccc3)C2)n1,44,–,–
C[S+]([O-])c1ccc(-c2nc(-c3ccc(F)cc3)c(-c3ccncc3)[nH]2)cc1 (stereo unspecified) [SB-203580],–,–,IC50 [3]: 220 nM
Cc1onc(-c2ccccc2)c1-c1ccnc(N[C@@H]2CCN(C(=O)OC(C)(C)C)C2)n1,78,–,–
Cc1onc(-c2ccccc2)c1-c1ccnc(NCCNC(=O)OC(C)(C)C)n1,0,–,–
Cc1ccc(-n2nc(C(C)(C)C)cc2NC(=O)Nc2ccc(OCCN3CCOCC3)c3ccccc23)cc1 [DORAMAPIMOD],–,–,IC50 [3]: 140 nM
Cc1onc(-c2ccccc2)c1-c1ccnc(NCCCNC(=O)OC(C)(C)C)n1,45,–,–
CC(=O)N[C@H]1CC[C@H](Nc2nccc(-c3c(-c4ccccc4)noc3C)n2)CC1,93,24,IC50 [4]: 26 nM; AUC [5]: 5.3 µM·h; inhibition at 5 µM (CYP2C19): 76%; Time (Mus musculus): 8 h; remaining at 1 h [6]: 89%; Activity (Brugia malayi [7]): Active; inhibition at 5 µM (CYP3A4): 51%; inhibition at 5 µM (CYP2D6): 32%; Ratio [8]: 10; remaining at 1 h [9]: 89%; inhibition at 5 µM (CYP1A2): 29%; fraction unbound [10]: 0.08; Activity (Brugia malayi [11]): Active; Tmax [12]: 30 min; Cmax [13]: 2960 nM; IC50 [14]: 170 nM; inhibition at 5 µM (CYP2C9): 59%
Cc1onc(-c2ccccc2)c1-c1ccnc(NC2CCN(C(=O)OC(C)(C)C)CC2)n1,0,–,–
CC(=O)N1CC[C@@H](Nc2nccc(-c3c(-c4cccnc4)noc3C)n2)C1,3,–,–
Cc1onc(-c2ccccc2)c1-c1ccnc(N[C@@H]2CCN(S(C)(=O)=O)C2)n1,70,520,–
